# Measurements reported in patent publication US5672597A, “Acetamide derivative” (Kaken Pharmaceutical Co., Ltd., priority 1992, dated 1997).
# Where two headings read alike, the source gives them in different places.
# Tests used:
# [1] = system: ulcer induced by pylorus-ligation; experiment: Test of ulcer induced by pylorus-ligation; assay type: in vivo, wistar male rat; settings: 14 h, read-out: Percentage of inhibition of ulcer formation
# Experimental: (§1) With respect to anti-ulcer effect of the compounds having the general formula (I), there were carried out a test of ulcer induced by pylorus-ligation, which ulcer is induced mainly due to offensive factors; a test of ulcer induced by hydrochloric acid/ethanol, which ulcer is induced mainly due to defensive factors such as mucosal blood flow and mucus; and a test of ulcer induced by a stress of restraint plus water-immersion, which ulcer is induced due to both of offensive and defensive factors. Further, there were carried out a test of ulcer induced by acetic acid as a chronic ulcer model and a test of cure-prolonged ulcer induced by acetic acid. Also, there was examined an activity of increasing gastric mucosal blood flow, which activity brings about acceleration of regeneration of the gastric mucosa. As test compounds, hydrochloride salts were used.
# The pylorus of a wistar male rat weighing 230 to 250 g, which had fasted for 48 hours, was ligated under ether-anesthesia, according to a usual method. After 14 hours, the animal was sacrificed by ether and the stomach was taken out therefrom.
# The area of the ulcer generated on the fore-stomach was measured and the total area of the ulcer per rat was classified into the following six grades to give ulcer coefficients (Table 4).
# Each of them was suspended in 0.5% methylcellulose solution and administered in the duodenum immediately after ligating the pylorus, in a dose of 100 mg/kg (body weight), respectively. To control group, only the medium for the medicament solution was administered in an amount of 0.25 ml/100 g (body weight).
# The obtained results were subjected to the following formula to calculate a percentage of inhibition of ulcer formation. Six rats were used in each group for the test: [formula]
# [2] = system: ulcer induced by hydrochloric acid/ethanol; experiment: Test of ulcer induced by hydrochloric acid/ethanol; assay type: in vivo, wistar male rat; settings: 1 h, read-out: Percentage of inhibition of ulcer formation; for inhibition in vivo at 30 mg/kg: 30 mg/kg oral, hydrochloride salts
# Experimental: as §1
# To a wistar male rat weighing 220 to 240 g, which had fasted and thirsted for 24 hours, was orally administered 150 mM hydrochloric acid/70% ethanol solution in an amount of 5 ml/kg (body weight). After 1 hour, the animal was sacrificed by dislocating the cervical vertebrae and the stomach was taken out therefrom. The length of the ulcer generated on the glandular stomach was measured and the total thereof was regarded as the ulcer coefficient (mm).
# To control group, only the medium for the medicament solution was orally administered in an amount of […] (body weight), 30 minutes before the administration of hydrochloric acid/ethanol.
# (§2) The obtained results were subjected to the same formula as in the test of ulcer induced by pylorus-ligation, to calculate a percentage of inhibition of ulcer formation. Six rats were used in each group for the test.
# [3] = system: ulcer induced by a stress of restraint plus water-immersion; experiment: Test of ulcer induced by a stress of restraint plus water-immersion; assay type: in vivo, ddY male mouse; settings: 7 h, read-out: Percentage of inhibition of ulcer formation; for inhibition in vivo at 30 mg/kg: mouse, 30 mg/kg oral, 15 minutes before the load of the stress, hydrochloride salts
# Experimental: as §1
# A ddY male mouse weighing 20 to 25 g, which had fasted for 18 hours, was put into a stress cage, and was loaded with a stress by immersing it in a water tank at 23° C., to a level of a xiphoid. After 7 hours, the animal was sacrificed by dislocating the cervical vertebrae and the stomach was taken out therefrom. The length of the ulcer generated on the glandular stomach was measured and the total thereof was regarded as the ulcer coefficient (mm).
# To control group, only the medium for the medicament solution was orally administered in an amount of 0.1 ml/10 g (body weight) 15 minutes before the load of the stress.
# as §2
# [4] = system: ulcer induced by acetic acid; experiment: Test of ulcer induced by acetic acid; assay type: in vivo, wistar male rat; settings: rat, 15 mg/kg oral, twice a day from 2 days after generation of the ulcer
# Experimental: as §1
# Into the junction of the glandular stomach and the antrum, of a wistar male rat weighing 220 to 240 g, was injected subserosally […] of 20% acetic acid to generate an ulcer induced by acetic acid. […] Each of them was suspended in 0.5% methylcellulose solution, and administered orally in a dose of 15 mg/kg, twice a day (in the morning and in the evening) from 2 days after the generation of the ulcer for days, respectively. The animal was sacrificed by ether on the day after the last administration, and the stomach was taken out therefrom. The area of the ulcer was measured.
# The obtained results were subjected to the following formula to calculate a percentage of improvement for curing ulcer. To control group, only the medium for the medicament solution was administered in an amount of 0.5 ml/100 g (body weight). Twenty rats were used in each group for the test. [formula]
# [5] = system: cure-prolonged ulcer induced by acetic acid; experiment: Test of cure-prolonged ulcer induced by acetic acid; assay type: in vivo, wistar male rat; settings: rat, 50 mg/kg oral, twice a day; cure prolonged with indomethacin 1 mg/kg s.c. for 13 days
# Experimental: as §1
# Into the junction of the glandular stomach and the antrum, of a wistar male rat weighing 220 to 240 g, was injected subserosally 30 μl of 20% acetic acid to generate an ulcer induced by acetic acid. From 2 days after the generation of the ulcer, indomethacin was injected subcutaneously in the regions of back of the rat in a dose of 1 mg/kg, once a day for 13 days to prolong the cure of the ulcer induced by acetic acid.
# Each of them was suspended in 0.5% methylcellulose solution, and administered orally in a dose of 50 mg/kg, twice a day (in the morning and in the evening) from 13 days, respectively. The animal was sacrificed by ether on the day after the last administration, and the stomach was taken out therefrom. The area of the ulcer was measured. The obtained results were subjected to the following formula to calculate a percentage of improvement for curing ulcer. To control group, only the medium for the medicament solution was administered in an amount of 0.5 ml/100 g (body weight). Twenty rats were used in each group for the test. [formula]
# [6] = rat, 100 mg/kg, in the duodenum immediately after ligating the pylorus, hydrochloride salts
# [7] = rat, 30 minutes before hydrochloric acid/ethanol
Structure (SMILES),"inhibition in vivo at 100 mg/kg [1, 6] [%]","inhibition in vivo at 30 mg/kg [2, 7] [%]",inhibition in vivo at 30 mg/kg [3] [%],other results
"O=C(CSCCNC(=O)c1ccoc1)NC/C=C\COc1cccc(CN2CCCCC2)c1 [Example 10, N-[4-[3-(piperidinomethyl)phenoxy]-cis-2-butenyl]-2-[2-(3-furoylamino)ethylthio]acetamide]",73,89,73,–
C=CCOC(=O)NCC[S+]([O-])CC(=O)NC/C=C\COc1cccc(CN2CCCCC2)c1 (centres unmarked) [Example 81],76,69,73,–
CCCCNC(=S)NCCSCC(=O)NC/C=C\COc1cc(CN2CCCCC2)ccn1 [Example 95],73,72,71,–
COc1ccccc1C(=O)NCCSCC(=O)NC/C=C\COc1cccc(CN2CCCCC2)c1 [Example 73],60,67,69,–
"CNC(=S)NCCSCC(=O)NCCCOc1cccc(CN2CCCCC2)c1 [Example 16, N-[3-[3-(piperidinomethyl)phenoxy]propyl]-2-[2-(N'-methylthioureido)ethylthio]acetamide]",70,62,74,–
"CN/C(=N/CCSCc1nc[nH]c1C)NC#N [cimetidine, reference compound]",–,–,–,"inhibition in vivo at 100 mg/kg ([1]; Rattus norvegicus): 27%; inhibition in vivo at 100 mg/kg ([2]; Rattus norvegicus, po): 7%; inhibition in vivo at 100 mg/kg ([3]; Mus musculus, po): 61%"
O=C(CSCCNC(=O)c1ccccn1)NCCCOc1cccc(CN2CCCCC2)c1 [Example 6],67,61,88,–
COC(=O)NCC[S+]([O-])CC(=O)NC/C=C\COc1cccc(CN2CCCCC2)c1 (centres unmarked) [Example 79],57,78,67,–
"NC(N)=Nc1nc(CSCCC(N)=NS(N)(=O)=O)cs1 [famotidine, reference compound]",70,–,100,"inhibition in vivo at 100 mg/kg ([2]; rat, 100 mg/kg oral (cimetidine and famotidine), 30 minutes before hydrochloric acid/ethanol): 34%; Percentage of improvement for curing ulcer [4]: 7%; Percentage of improvement for curing ulcer [5]: 26%"
COc1ccccc1C(=O)NCCSCC(=O)NC/C=C\COc1cc(CN2CCCCC2)ccn1 [Example 91],69,87,83,–
"COC(=O)NCCSCC(=O)NC/C=C\COc1cccc(CN2CCCCC2)c1 [Example 15, N-[4-[3-(piperidinomethyl)phenoxy]-cis-2-butenyl]-2-[2-(methoxycarbonylamino)ethylthio]acetamide]",68,60,98,–
"COC(=O)NCCSCC(=O)NCCCOc1cccc(CN2CCCCC2)c1 [Example 12, N-[3-[3-(piperidinomethyl)phenoxy]propyl]-2-[2-(methoxycarbonylamino)ethylthio]acetamide]",77,68,68,–
"CCOC(=O)NCCSCC(=O)NC/C=C\COc1cccc(CN2CCCCC2)c1 [Example 14, N-[4-[3-(piperidinomethyl)phenoxy]-cis-2-butenyl]-2-[2-(ethoxycarbonylamino)ethylthio]acetamide]",63,77,91,–
"CCOC(=O)NCCSCC(=O)NCCCOc1cccc(CN2CCCCC2)c1 [Example 13, N-[3-[3-(piperidinomethyl)phenoxy]propyl]-2-[2-(ethoxycarbonylamino)ethylthio]acetamide]",68,69,89,–
O=C(CSCCNC(=O)c1ccccc1F)NCCCOc1cccc(CN2CCCCC2)c1 [Example 44],57,83,77,–
"O=C(CSCCNC(=O)c1ccco1)NCCCOc1cccc(CN2CCCCC2)c1 [Example 5, N-[3-[3-(piperidinomethyl)phenoxy]propyl]-2-[2-(2-furoylamino)ethylthio]acetamide]",57,97,93,–
"COc1ccc(CN2CCCCC2)cc1OC/C=C\CNC(=O)CSCCNC(=O)c1ccoc1 [Example 4, N-[4-[(2-methoxy-5-piperidinomethyl)phenoxy]-cis-2-butenyl]-2-[2-(3-furoylamino)ethylthio]acetamide]",73,97,75,–
"O=C(CSCCNC(=O)c1ccccc1)NC/C=C\COc1cccc(CN2CCCCC2)c1 [Example 8, N-[4-[3-(piperidinomethyl)phenoxy]-cis-2-butenyl]-2-[2-(benzoylamino)ethylthio]acetamide]",50,90,93,–
COC(=O)NCC[S+]([O-])CC(=O)NCCCOc1cccc(CN2CCCCC2)c1 (centres unmarked) [Example 48],95,73,100,–
"CCC(=NC#N)NCCSCC(=O)NC/C=C\COc1cccc(CN2CCCCC2)c1 [Example 11, N-[4-[3-(piperidinomethyl)phenoxy]-cis-2-butenyl]-2-[2-[(N-cyanopropioimidoyl)amino]ethylthio]-acetamide]",55,51,70,–
